Assay results published in patent US20250352518A1, “A BENZIMIDAZOLE COMPOUND WITH ANTIHELMINTHIC ACTIVITY FOR USE IN REVERSING, ARRESTING OR SLOWING DOWN CELLULAR AGEING IN A VERTEBRATE SUBJECT” (RAVAN BIO LIMITED, priority 2022, published 2025).

Tests used:
[1] = Canine case studies: biological age by breed-specific telomere length (DNA-My-Dog); format: in vivo; settings: for reduction in biological age: versus chronological age
Experimental: In 2017, a […] (D.O.B Jan. 5, 2008) female Lhasa Apso/Jack Russell/Shih Tzu cross-breed (confirmed by genetic breed analysis: DNA-My-Dog) with a body mass of 9 Kg, was treated with 0.6 gm/day of 22.2% Fenbendazole (Panacur® granules) which was given orally for 3 consecutive days/week for 1 month and this cycle was repeated every 3rd month giving 4 cycles/annum providing a total of 16×1 month treatment cycles spread over a period of 4 yrs up to the present day.
Subject C2A's chronological age was verified by microchip implantation date using the Petlog database and, in March 2022, a cheek epithelium swab was sent to DNA-My-Dog for genetic assessment of breed composition and biological age by analysis of breed-specific telomere length. The results, returned on the 30 Mar. 2022, reported a biological age of 3 yrs old. Three more treatment cycles were subsequently administered and a repeat biological age telomere test carried out on the 30 Sep. 2022 which also returned a biological age of 3 yrs old. […] Translating these findings to humans, a 14 yr old Lhasa Apso has an equivalent human age of about 72 whereas a 3 yr old has an equivalent human age of about 28. This indicates a potential reduction in human age of 44 yrs which would equate to a 61% reduction of biological age in humans.
In 2017, a 4 yr old Jack Russell/Poodle/Maltese cross-breed (Confirmed by genetic breed analysis: DNA-My-Dog) with a body mass of 9.2 Kg was treated with 1.0 gm/day of 22.2% Fenbendazole Panacur® granules for 3 days per week and 4 days without. The dosing schedule of 3 days with, 4 days without treatment per week was continued for 3 months after which the dose was reduced to 0.6 gm/day of Panacur® and treatment alternated between 1 month with and 1 month without for 19 months providing a total of 11×1 month treatment cycles over the whole time period. After this, treatment was discontinued for 2 years and 5 months up to 12 May 2022 when a cheek swab was taken for analysis of biological age and this was repeated 5 months later on the 30 Sep. 2022.
The initial reason for treating this animal was that it had been diagnosed with an anal sac adenocarcinoma and, at the time, it was decided to explore the use of Fenbendazole as an alternative treatment. […] Subject C2B's birth date was May 2014 giving a chronological age of 8 yrs which was verified by microchip implantation date using the Petlog database. Following the outlined treatment with Fenbendazole, in April 2022, a cheek epithelium swab was sent to DNA-My-Dog for assessment of breed composition and biological age by analysis of breed-specific telomere length. The result, returned on the 12 May 2022, reported a biological age of 1 yr old indicating a reduction in biological age of 7 yrs. which is equivalent to ˜90% reduction in biological age. […] After a further gap of 5 months without treatment, on the 30 Sep. […] However, unlike subject C2A, no treatment was given during this period so the most likely explanation is that the efficacy time-limit of the initial treatment has been exceeded.

[2] = test system: post-confluent NHEK cells; assay: Growth of re-cultured post-confluent (cell-cell contact growth arrested) NHEK's; format: cell-based, human; settings: for concentration causing optimal cell growth: post-confluent NHEK
Description: Neonatal human epidermal foreskin keratinocytes (NHEKs) were used to test the ability of compounds to reverse, arrest or slow down cellular ageing. These cells typically undergo approximately 35 cell divisions before the Hayflick limit is reached but they can be induced to undergo premature senescence and, what has been understood to be, irreversible growth arrest earlier than this by induction of cell-cell contact growth inhibition when cultured at high cell density/to confluence (Poumay & Pittelkow 1995 J Inv Dermatol 104, p 271-276). The inventors were thus inspired to culture post-confluent cells and assess the effect of test compounds on the growth, telomere loss and secretion of inflammatory factors by such cells. An experimental schematic is provided as FIG. 1. 1.1 Culture of Early Passage NHEK's in the Presence and Absence of y27632 Pooled donor neonatal NHEK's (Cat No C-12005, Lot No 456Z001.1, PromoCell GmBH), serum-free PromoCell Keratinocyte Growth Medium 2 (KSFM, Cat No C20011. Lot No 472M197), CaCl2) (Lot No 471055) and Supplements (Lot No 472M013) were all obtained from PromoCell GmBH. NHEK's were thawed directly into a single T75 in 20 mls of complete KSFM (CaCl2 & Supplements), incubated over night at 37° C., 5% CO2 and the medium changed the following day. After 3 days the cells were 80% confluent and were passaged (Ist) using 0.05% Trypsin+EDTA (Gibco) into ×2 T75 flasks at a split ratio of 1:4. After overnight incubation at 37° C., 5% CO2, the cultures were at 30% confluence and 10 μM Y27632 (Cat No 688000, Lot No 2884132, Merck) was added to one of the flasks. […] Fresh T75 flasks were seeded with 5.0×10^5 cells from each in their respective medium. […] Fresh T75 flasks were seeded, as described previously, and also 1.2×10^4 NHEK cells/well were seeded into 24 well plates, incubated overnight to allow cell attachment, and the following subsequently added to separate wells: • A. NHEK in complete KSFM • B. NHEK+Y27632 in complete KSFM • C. Y27632 treated NHEK transferred to complete KSFM (Y27632 Removed) • D. NHEK transferred to complete KSFM+500 nM Tadalafil • E. NHEK transferred to complete KSFM+750 nM Tadalafil • F. NHEK transferred to complete KSFM+1000 nM Tadalafil • G. NHEK transferred to complete KSFM+1250 nM Tadalafil • H. NHEK transferred to complete KSFM+50 nM Fenbendazole • I. NHEK transferred to complete KSFM+100 nM Fenbendazole • J. NHEK transferred to complete KSFM+150 nM Fenbendazole • K. NHEK transferred to complete KSFM+200 nM Fenbendazole All drugs were added 24 hours after seeding. […] FIG. 2B is an example of the appearance of post-confluent cells.
Post-confluent NHEK's (FIG. 2B) were subsequently passaged (4th) into a fresh 24 well plate using a split ratio of 1 in 4 in 2 mls of fresh complete KSFM. These were left overnight to attach and the same compounds added (as shown in A-K of 1.1) followed by incubation for a further 24 hours and subsequently photographed.

NHEK cells = assay: Population doublings and telomere loss per population doubling of drug-treated NHEK's (qPCR); format: cell-based, human; settings: passage 10 and 11 NHEK's, versus DMSO control, FIG. 8b
Experimental: Sub-confluent passage 2 NHEK's in T75 flasks were cultured in complete KSFM maintained at 5% CO2, 37° C. until ˜80% confluent as described in 1.5. These were subsequently passaged and accurate cell counts determined by Via-1 cassette NC3000 Image Cell Cytometer. An aliquot of 40,000 cells was then seeded into T25 flasks which were incubated for 24 hours in KKSFM at 5% CO2, 37° C. to allow cells to adhere. […] These cultures were then incubated for another 3 days at 5% CO2, 37° C. when confluency was approx 80%. At this point, cells were harvested, Via-1 counts carried out, 50,000 cells pelleted for DNA preparation (DNeasy® Blood & Tissue Kit, Qiagen UK, Cat No 69505) and 40,000 cells seeded into a fresh T-25 flask for each specific drug treatment. The whole procedure was then repeated 8 times until passage 11. Extracted DNA quality and quantity was determined with a QuickDrop DNA Spectrophotometer (Molecular Devices. Model 504 7178) and then this was used to analyse comparative telomere length in each sample by use of a Relative Human Telomerase Length Quantification qPCR Assay Kit (ScienCell™, Cat No 8908) with a Stratagen qPCR/Real Time PCR Machine. Model Mx3005P®. […] Analysis of relative telomere length was carried out on DNA extracted from passages 3-10 in triplicate using a qPCR Assay Kit (ScienCell™, Cat No 8908), according to the manufacturer's instructions.

[3] = test system: post-confluent NHEK cells; assay: Growth of re-cultured post-confluent (cell-cell contact growth arrested) NHEK's; format: cell-based, human
[4] = dog C2A findings translated to equivalent human age

COC(=O)Nc1nc2ccc(Sc3ccccc3)cc2[nH]1 [Fenbendazole, methyl 5-(phenylthio)-2-benzimidazole carbamate]
potential reduction in human age [1, 4]: 44 yrs
reduction of biological age in humans [1, 4]: 61%
biological age (repeat test) ([1]; dog C2A, 30 Sep. 2022, after three more treatment cycles): 3 yrs
biological age ([1]; dog C2A, chronological age 14 yrs, result 30 Mar. 2022, 0.6 gm/day Panacur granules 3 days/week, 1 month cycles over 4 yrs): 3 yrs
reduction in biological age ([1]; dog C2A): 11 yrs
reduction in biological age ([1]; dog C2A, over 4 years): ~80%
biological age (repeat test) ([1]; dog C2B, 30 Sep. 2022, further 5 months without treatment): 3 yrs
biological age ([1]; dog C2B, chronological age 8 yrs, result 12 May 2022, 19 months treatment then 2 yrs 5 months without): 1 yr
continued growth of post-confluent NHEK's (phase contrast) ([2]; passage 4, 24 hours with compound, 10 μM Y27632, 500-1250 nM Tadalafil, 50-200 nM Fenbendazole, FIG. 3): all exhibited cell growth
concentration causing optimal cell growth ([2]; cultured for a further 24 hrs, FIG. 4): 100 to 150 nM
concentration causing optimal cell growth ([2]; passage 4, 24 hours, FIG. 3): 100 to 150 nM
relative telomere loss per population doubling (NHEK cells): greatest reduction
number of viable cells (Via-1 Assay) following withdrawal of drug ([3]; treatment P3-P5 only, withdrawn following passage 6, 5 days, FIG. 5): 9.7×10^4 cells/ml
number of viable cells (Via-1 Assay) ([3]; treatment continued for passages P3-P6, 5 days after passage 6, FIG. 5): 9.5×10^4 cells/ml
